Consider eight compounds from paper PMC6009911, “Inhibition of human cytochromes P450 2A6 and 2A13 by flavonoids, acetylenic thiophenes and sesquiterpene lactones from Pluchea indica and Vernonia cinerea” (Journal of Enzyme Inhibition and Medicinal Chemistry, 2017).

Read-outs that look alike come from different tables or passages of the source.

Data set [1] addresses T1, CYP2A13 (Homo sapiens, UniProt Q16696).
T1 construct: made in house
T1 sequence (Q16696 1-494): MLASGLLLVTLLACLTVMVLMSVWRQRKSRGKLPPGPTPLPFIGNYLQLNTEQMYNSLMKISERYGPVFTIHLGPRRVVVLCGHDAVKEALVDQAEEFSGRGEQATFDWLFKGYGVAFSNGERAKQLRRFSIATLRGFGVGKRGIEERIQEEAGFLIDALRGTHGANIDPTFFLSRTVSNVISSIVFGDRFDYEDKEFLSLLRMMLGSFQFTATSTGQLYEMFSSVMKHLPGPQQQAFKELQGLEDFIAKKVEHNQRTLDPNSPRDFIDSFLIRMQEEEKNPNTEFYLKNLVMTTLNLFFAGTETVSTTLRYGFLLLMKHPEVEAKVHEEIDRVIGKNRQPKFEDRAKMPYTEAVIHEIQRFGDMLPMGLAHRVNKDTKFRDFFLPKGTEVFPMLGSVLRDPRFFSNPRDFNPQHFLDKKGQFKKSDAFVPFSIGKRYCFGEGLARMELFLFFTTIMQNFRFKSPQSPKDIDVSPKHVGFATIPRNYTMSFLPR
Put plainly: Inhibition of CYP2A13-mediated coumarin 7-hydroxylation, enzymatic reconstitution assay. It is filed as biochemical. The note with it: for Ki: coumarin 0–40 µM. The procedure:
(§1) Inhibitory effect of plant extracts, fractions, subfractions and constituents was determined by inhibition assay on CYP2A6- and CYP2A13-mediated coumarin 7-hydroxylation. The recombinant human CYP2A6, CYP2A13 and rat NADPH-dependent cytochrome P450 oxidoreductase (CYPOR) proteins were expressed, purified, according to the methods previously described. […] Rate of 7-hydroxycoumarin product formation was measured on spectrofluorometer (Shimadzu, Kyoto, Japan) at λex = 355 nm, λem = 460 nm. Inhibition effects were determined by incubation with extracts, fractions or purified compounds with coumarin substrate in the reaction mixture and calculated as per cent relative inhibition compared with vehicle control reaction[20] and IC50 values were calculated using GraphPad Prism 5 (GraphPad Software Inc., La Jolla, CA).
(§2) MBI requires NADPH and time to generate reactive intermediate as inhibitor and ultimately inactivates the enzyme. MBI was evaluated by pre-incubation with each test inhibitor in the reaction at different time periods (0, 10, 20 and 30 min) in the presence of NADPH for time-dependent assay, as described. The apparent inactivation constants, KI and Kinact, were obtained from double reciprocal plots of kobs versus inhibitor concentrations by linear regression analysis on GraphPad Prism 5. Methoxsalen was used as a control mechanism-based inhibitor for time- and NADPH-dependent inhibition assays.

The target of data set [2] is T1, CYP2A13. Description: Mechanism-based (time- and NADPH-dependent) inactivation of CYP2A13. The note with it: pre-incubation 0-30 min with NADPH; for KI (inactivation): read-out: CYP2A13 KI (inactivation constant). It is filed as biochemical. The procedure: as §2
The target in data set [3] is T1, CYP2A13. Put plainly: Effects of trapping agents and dialysis on inactivation of CYP2A13. Type of data set: biochemical. The note with it: CYP2A13 inhibition reaction mixture, probe coumarin, compound 5 µM. As to the method:
as §2
(§3) To explore whether inactivation of CYP2As by thiophenes 9–11 and of CYP2A13 by hirsutinolides 5-8 could be reversed, the removal of reversible inhibitory compounds by dialysis and addition of trapping agents (GSH, semicarbazide, catalase or potassium ferricyanide) in the inhibition reaction mixture were performed. […] Similarly, mechanism-based inactivation of both CYP2A6 and CYP2A13 by thiophenes 9–11 could not be reversed (Table 3).

The target in data set [4] is T2, CYP2A6 (Homo sapiens, UniProt P11509).
T2 sequence (P11509 1-494): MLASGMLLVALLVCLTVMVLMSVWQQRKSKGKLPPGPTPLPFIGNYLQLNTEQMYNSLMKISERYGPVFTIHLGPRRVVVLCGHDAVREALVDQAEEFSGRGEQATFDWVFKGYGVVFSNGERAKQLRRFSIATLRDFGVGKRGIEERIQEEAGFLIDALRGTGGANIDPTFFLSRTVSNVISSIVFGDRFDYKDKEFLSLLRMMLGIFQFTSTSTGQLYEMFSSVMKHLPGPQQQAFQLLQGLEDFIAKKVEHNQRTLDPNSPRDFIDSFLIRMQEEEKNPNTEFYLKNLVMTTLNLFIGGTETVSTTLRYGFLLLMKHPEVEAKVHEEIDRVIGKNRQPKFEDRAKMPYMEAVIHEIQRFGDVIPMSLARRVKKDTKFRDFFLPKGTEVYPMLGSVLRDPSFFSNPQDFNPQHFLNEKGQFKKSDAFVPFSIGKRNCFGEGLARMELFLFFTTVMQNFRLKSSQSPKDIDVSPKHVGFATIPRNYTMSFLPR
Put plainly: Inhibition of CYP2A6-mediated coumarin 7-hydroxylation, enzymatic reconstitution assay. The note with it: for Ki: coumarin 0–40 µM. On the set-up: made in house. Type of data set: biochemical. The procedure: as §1, §2

Data set [5] has as its target T2, CYP2A6. Put plainly: Mechanism-based (time- and NADPH-dependent) inactivation of CYP2A6. Also on record: made in house. Type of data set: biochemical. Conditions: human, recombinant human CYP2A6, probe coumarin, pre-incubation 0-30 min with NADPH; for KI (inactivation): read-out: CYP2A6 KI (inactivation constant). The procedure:
as §2

For data set [6], the target named is T2, CYP2A6. Description: Effects of trapping agents and dialysis on inactivation of CYP2A6. Type of data set: biochemical. On the set-up: made in house. The note with it: CYP2A6 inhibition reaction mixture, probe coumarin, compound 5 µM. The procedure: as §2, §3
For data set [7], the target named is T1, CYP2A13. On the set-up: method as in PMID 23903410, PMID 17672516. Conditions: literature values; cited from earlier work.
The target in data set [8] is T2, CYP2A6. The note with it: read-out: inactivation kinetic values (KI) against CYP2A6; literature values; cited from earlier work.
The mark [9] stands for this setting: 10-min pre-incubation in the presence of NADPH, read-out: IC50 CYP2A13 Pre-incubation.
Setting [10] is: coincubation, coumarin 2 µM, read-out: IC50 CYP2A13 Coincubation.
The mark [11] stands for this setting: read-out: Per cent remaining activity, 70 μM K3Fe(CN)6.
Setting [12] is: read-out: Per cent remaining activity, 2 mM GSH.
Where [13] appears, read: read-out: Per cent remaining activity, 5 mM semicarbazide.
Where [14] appears, read: read-out: Per cent remaining activity, 2000 U catalase.
Setting [15] is: read-out: Per cent remaining activity, Dialysis (+) NADPH.
[16] abbreviates: read-out: Per cent remaining activity, Dialysis (−) NADPH.
Setting [17] is: read-out: Per cent remaining activity, Pre-incubation.
Setting [18] is: 10-min pre-incubation in the presence of NADPH, read-out: IC50 CYP2A6 Pre-incubation.
The mark [19] stands for this setting: coincubation, coumarin 2 µM, read-out: IC50 CYP2A6 Coincubation.

As usually defined, the IC50 is the concentration that inhibits the measured activity by half. The Ki is the equilibrium dissociation constant of an inhibitor or competing ligand from its target. A high value points to weaker binding. Usually kinact stands for the maximal first-order rate at which the target is inactivated. Regarding `CC#CC#Cc1ccc(C#CC(O)COC(C)=O)s1` (stereo not shown) [Thiophene 9, 2-(penta-1,3-diyn-1-yl)-5–(4-acetoxy-3-hydroxybuta-1-yn-1-yl) thiophene], the “CYP2A13 Mode of inhibition” value on CYP2A13 [1] is on record as “Mixed type”. For the same compound, the IC50 was found to be 2290 ± 340 nM on CYP2A13 [1] (setting [9]), 6180 ± 280 nM on CYP2A13 [1] (setting [10]), 2120 ± 190 nM at CYP2A6 [4] (setting [18]) and 6430 ± 1290 nM at CYP2A6 [4] (setting [19]). In addition, the values for the Ki at CYP2A13 [1] and at CYP2A6 [4] were 2960 ± 100 nM and 3230 ± 430 nM, respectively. For the same compound, the kinact at CYP2A13 [2] was 0.00133 s⁻¹; at CYP2A6 [5] it was 0.00167 s⁻¹. For the same compound, the results for the KI (inactivation) on CYP2A13 [2] and at CYP2A6 [5] were 970 ± 40 nM and 880 ± 90 nM, respectively. Moreover, the activity at 5 µM was 24.9 ± 3.95% on CYP2A13 [3] (setting [11]); 23.2 ± 3.38% at CYP2A13 [3] (setting [12]); 23.2 ± 3.38% on CYP2A13 [3] (setting [13]); 22.1 ± 2.39% on CYP2A13 [3] (setting [14]); 20.9 ± 0.24% at CYP2A13 [3] (setting [15]); 85.3 ± 4.98% on CYP2A13 [3] (setting [16]). The activity at 5 µM on CYP2A13 [3] (setting [17]) was determined as 29 ± 4.57%; at CYP2A6 [6] (setting [11]) it was 22.7 ± 1.58%; at CYP2A6 [6] (setting [12]), 21.6 ± 1.97%; at CYP2A6 [6] (setting [13]), 26.8 ± 2.39%; on CYP2A6 [6] (setting [14]), 26.9 ± 3.07%; at CYP2A6 [6] (setting [15]), 20.1 ± 5.21%. The activity at 5 µM on CYP2A6 [6] (setting [16]) is 89.3 ± 7%; at CYP2A6 [6] (setting [17]), 30.1 ± 3.7%. In addition, on CYP2A6 [4], the “CYP2A6 Mode of inhibition” value is “Mixed type”.
For the compound `CC#Cc1ccc(C#CC#CC(O)COC(C)=O)s1` (stereo not shown) [Thiophene 10, 2-(prop-1-inyl)-5–(6-acetoxy-5-hydroxyhexa-1,3-diinyl) thiophene], the “CYP2A13 Mode of inhibition” value on CYP2A13 [1] was “Mixed type”. Besides, the IC50 on CYP2A13 [1] (setting [9]) is 1150 ± 880 nM; at CYP2A13 [1] (setting [10]) it was 2940 ± 10 nM; on CYP2A6 [4] (setting [18]), 2970 ± 10 nM; at CYP2A6 [4] (setting [19]) it was 4440 ± 140 nM. Moreover, the Ki at CYP2A13 [1] was determined as 1120 ± 90 nM; at CYP2A6 [4], 2070 ± 230 nM. For the same compound, the kinact on CYP2A13 [2] is 0.001 s⁻¹; at CYP2A6 [5], 0.00183 s⁻¹. In addition, the KI (inactivation) on CYP2A13 [2] stood at 860 ± 90 nM; on CYP2A6 [5] it was 1010 ± 70 nM. The activity at 5 µM worked out at 26.9 ± 1.75% on CYP2A13 [3] (setting [11]); 27 ± 8.11% at CYP2A13 [3] (setting [12]); 27 ± 8.11% at CYP2A13 [3] (setting [13]); 22.2 ± 2.38% at CYP2A13 [3] (setting [14]); 21.4 ± 3.95% at CYP2A13 [3] (setting [15]); 93 ± 6.58% at CYP2A13 [3] (setting [16]). Moreover, the activity at 5 µM on CYP2A13 [3] (setting [17]) was found to be 28.9 ± 1.25%; on CYP2A6 [6] (setting [11]) it was 19.2 ± 1.83%; on CYP2A6 [6] (setting [12]), 28.5 ± 1.72%; at CYP2A6 [6] (setting [13]), 21.1 ± 3.31%; on CYP2A6 [6] (setting [14]), 24.1 ± 4.49%; at CYP2A6 [6] (setting [15]), 23.7 ± 2.06%. Besides, the activity at 5 µM stood at 87.5 ± 9.25% on CYP2A6 [6] (setting [16]) and 35.2 ± 3.22% on CYP2A6 [6] (setting [17]). Besides, the “CYP2A6 Mode of inhibition” value on CYP2A6 [4] was “Mixed type”.
As for `S=C=NCCCCCCc1ccccc1` [phenylhexyl isothiocyanate], at CYP2A13 [7], the “KI values against CYP2A13” value is 1100 nM.
`S=C=NCCCc1ccccc1` [phenylpropyl isothiocyanate]: the “KI values against CYP2A13” value on CYP2A13 [7] is 140 nM.
In the case of `C/C=C(\C)CC/C=C(\C)C(=O)OCC(C)(C)CC1=C(O)C(=O)c2ccccc2C1=O` [rhinacanthin-C, reference compound], the “KI values against CYP2A13” value on CYP2A13 [7] was 1680 nM. For the same compound, the KI (inactivation) at CYP2A6 [8] was 970 nM.
On to `CC(C)(C)N=C=S` [tert-butyl isothiocyanate], for which, on CYP2A13 [7], the “KI values against CYP2A13” value is 4300 nM.
For rhinacanthin-A [reference compound], on CYP2A13 [7], the “KI values against CYP2A13” value was 420 nM. Also, at CYP2A6 [8], the KI (inactivation) was 690 nM.
As to rhinacanthin-B [reference compound], the “KI values against CYP2A13” value at CYP2A13 [7] was 160 nM. For the same compound, on CYP2A6 [8], the KI (inactivation) was 440 nM.
